Test results reported in US20260137758A1, “TREATMENT OF STEATOTIC LIVER DISEASE ASSOCIATED WITH METABOLIC DYSFUNCTION” (priority 2024, published 2026).
Starred links: 1 amine or outer side, 2 acyl side, 3 side chain; linkers in the order of their positions; H or OH if unused. Non-standard residues stand in square brackets, D forms with d. Residues, ends and D or L forms follow the SMILES beside them. Groups on a side chain read outwards from the residue. *: point of attachment. Isobutyryl(2-(3-CN-5-F-Ph)) = CC(C)(C(=O)*)c1cc(F)cc(C#N)c1; C20 diacid = O=C(O)CCCCCCCCCCCCCCCCCCC(=O)*; γGlu = O=C(O)[C@H](CCC(=O)[*:2])N[*:1]; AEEA = NCCOCCOCC(=O)O; Aib = CC(C)(N)C(=O)O; βAla = NCCC(=O)O

Experiments:
human GLP-1R [1] = target: T1, human GLP-1R (Homo sapiens, UniProt P43220); experiment: cAMP accumulation (HitHunter), CHO-K1 cells expressing SNAP-human GLP-1R; assay type: cell-based; set-up: expressed in transfected cells
Description: (§1) cAMP production was measured using the HitHunter® cAMP Assay for Small Molecules kit in mammalian cell lines overexpressing either GLP-1R or GIPR. […] A total of 10,000 cells in 5 μL of media were added to each well of a 384-well, low-volume assay plate. For mouse receptor cAMP assays, either U2OS cells stably expressing mouse GLP-1R (DiscoverX 95-0179C3) or CHO-K1 cells stably expressing mouse GIPR (DiscoverX 95-0154C2) were used. Twenty-four hours before the assay, 5000-10,000 cells per well were plated in 384-well, low-volume tissue culture-treated plates in Assay Complete Cell Plating reagent 2 (murine GIPR cells) or 5 (murine GLP-1R cells). […] Compounds were diluted 1:1 in DMSO and 5 nL was transferred to the tissue-culture plate wells using an ECHO Acoustic Liquid Handler (Beckman Coulter).
(§2) Each dilution series was normalized to the adjacent high (100%) and low (0%) wells on the plate. Dose-response data were fitted to a curve using nonlinear regression analysis using the “log(agonist) vs response-variable slope” setting, where:
(§3) Y=Bottom+(Top−Bottom)/(1+10^((Log EC50−X)*HillSlope))
(§4) and the Hillslope was constrained to 1. Compound potency and efficacy were extracted from this regression analysis. […] For NanoBiT assays, a single time point during the 30-minute activity measurements was selected for maximum luminescence response. […]

human GLP-1R [2] = target: T1, human GLP-1R; experiment: β-arrestin-2 recruitment (NanoBiT), HEK293, human GLP-1R; assay type: cell-based; set-up: expressed in transfected cells; host or cells: HEK293 (stably or transiently transfected); details: HEK293, read-out: β-arrestin-2 % Emax
Description: (§5) β-arrestin recruitment was measured using Promega's NanoBiT technology and Nano-Glo® Live Cell Substrate in HEK293 cells. β-arrestin-2 recruitment was measured using Promega's NanoBiT technology and Nano-Glo® Live Cell Substrate (catalog number N2012), which uses the NanoLuc luciferase split into two subunits called LgBiT and SmBiT. HEK293 cells were either stably or transiently transfected with equal amounts of DNA plasmids expressing the fusion proteins human GLP-1R-LgBiT or GIPR-LgBiT and SmBiT-(human)-β-arrestin-2; similar methods were used for mouse GLP-1R, GIPR, and β-arrestin-2. […] The following day, the media was removed and replaced with 10 μL of a 1:100 dilution of Nano-Glo® Live Cell Substrate with NanoBiT buffer and OptiMem and equilibrated to room temperature for ten minutes covered. Background luminescence was measured before adding 100 nL of compound dilutions (made in a 1:1 ratio in DMSO). Compounds were transferred using an ECHO Acoustic Liquid Handler (Beckman Coulter) and luminescence was measured at 1.5-minute intervals for 15 minutes using an EnVision Multimode Plate Reader (PerkinElmer; Waltham, MA).
(§6) Each dilution series was normalized to the adjacent high (100%) and low (0%) wells on the plate. […]
(§7) and the Hillslope was constrained to 1. […] For NanoBiT assays, a single time point during the 30-minute activity measurements was selected for maximum luminescence response. […]

human GLP-1R [3] = target: T1, human GLP-1R; experiment: Receptor internalization (Nano-Glo HiBiT), HEK293, human GLP-1R; assay type: cell-based; set-up: expressed in transfected cells
Description: Receptor internalization for human GLP-1R and GIPR was measured with Promega's Nano-Glo® HiBit extracellular detection system in HEK293 cells. Receptor internalization for human GLP-1R and GIPR was measured using the Promega Nano-Glo© HiBit extracellular detection system (Promega Corporation). HEK293 cells were transiently transfected with 1000:1 ratio of carrier plasmid (pcDNA3.1) and plasmids containing HiBiT-tagged human GLP-1R or human GIPR sequences (Promega Corporation). Cells were dissociated the following day using TrypLE express enzyme (ThermoFisher Scientific) and plated in 96-well plates at 80,000-100,000 cells per well. Forty-eight hours post-transfection, media was replaced with equal parts CO2 independent media (Gibco) and Nano-Glo extracellular buffer containing LgBiT protein (diluted 1:100), and Nano-Glo HiBiT extracellular substrate (diluted 1:50). After a 15-minute equilibration and background luminescence reading, test compounds were added and the luminescence was measured for 120 minutes at two-minute intervals using an EnVision Multimode Plate Reader (PerkinElmer).
as §4

human GIPR [4] = target: T2, human GIPR (Homo sapiens, UniProt P48546); experiment: cAMP accumulation (HitHunter), CHO-K1 cells expressing SNAP-human GIPR; assay type: cell-based; set-up: expressed in transfected cells
T2 sequence (P48546 22-466): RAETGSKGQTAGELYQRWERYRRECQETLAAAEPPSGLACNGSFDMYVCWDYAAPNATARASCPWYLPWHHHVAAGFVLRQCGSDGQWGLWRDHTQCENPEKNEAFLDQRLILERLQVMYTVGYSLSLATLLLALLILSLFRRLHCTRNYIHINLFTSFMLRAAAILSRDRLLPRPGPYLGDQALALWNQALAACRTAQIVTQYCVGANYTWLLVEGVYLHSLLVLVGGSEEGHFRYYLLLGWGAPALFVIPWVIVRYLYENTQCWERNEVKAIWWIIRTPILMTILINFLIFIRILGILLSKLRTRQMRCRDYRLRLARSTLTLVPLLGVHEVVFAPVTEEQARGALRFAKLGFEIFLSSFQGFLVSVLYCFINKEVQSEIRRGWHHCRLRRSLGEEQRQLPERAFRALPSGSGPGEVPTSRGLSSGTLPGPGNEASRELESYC
Description: as §1, §2, §3, §4

[5] = Phase 1 SAD: pharmacokinetics; assay type: in vivo; details: human, serum; SAD Cohort 4 (6.0 mg) single SC dose; read-out: Vz/F (mean)
Description: PK parameters were also summarized using descriptive statistics (number of participants, mean, geometric mean, standard deviation, coefficient of variation, median, minimum, and maximum). In the SAD portion, the power model was used to assess dose proportionality.

human GIPR [6] = target: T2, human GIPR; experiment: β-arrestin-2 recruitment (NanoBiT), HEK293, human GIPR; assay type: cell-based; set-up: expressed in transfected cells; host or cells: HEK293 (stably or transiently transfected); details: HEK293, read-out: β-arrestin-2 % Emax
Description: as §5, §6, §7

T1 sequence (P43220 24-463): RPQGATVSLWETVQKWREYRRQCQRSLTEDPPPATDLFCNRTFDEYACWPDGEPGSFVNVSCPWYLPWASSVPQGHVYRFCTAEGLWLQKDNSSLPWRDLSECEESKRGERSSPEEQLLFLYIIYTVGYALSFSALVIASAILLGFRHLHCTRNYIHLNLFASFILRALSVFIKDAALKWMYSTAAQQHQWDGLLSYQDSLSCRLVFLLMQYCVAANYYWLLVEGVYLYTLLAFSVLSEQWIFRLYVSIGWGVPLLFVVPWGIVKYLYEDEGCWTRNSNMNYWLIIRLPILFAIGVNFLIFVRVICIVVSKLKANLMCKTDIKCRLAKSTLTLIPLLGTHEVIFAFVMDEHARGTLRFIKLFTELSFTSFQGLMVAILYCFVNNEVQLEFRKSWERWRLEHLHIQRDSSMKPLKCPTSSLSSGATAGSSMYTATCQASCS

Question: What does the source list for `CC[C@H](C)[C@H](NC(=O)[C@H](CC(C)C)NC(=O)[C@H](Cc1c[nH]c2ccccc12)NC(=O)[C@H](CCC(N)=O)NC(=O)[C@@H](NC(=O)[C@H](Cc1ccccc1)NC(=O)[C@H](C)NC(=O)[C@H](CCCCNC(=O)COCCOCCNC(=O)COCCOCCNC(=O)CC[C@H](NC(=O)CCCCCCCCCCCCCCCCCCC(=O)O)C(=O)O)NC(=O)[C@H](CCC(N)=O)NC(=O)[C@H](C)NC(=O)[C@@H](NC(=O)[C@H](CCCCN)NC(=O)[C@H](CC(=O)O)NC(=O)[C@H](CC(C)C)NC(=O)C(C)(C)NC(=O)[C@@H](NC(=O)[C@H](CO)NC(=O)[C@H](Cc1ccc(O)cc1)NC(=O)[C@H](CC(=O)O)NC(=O)[C@H](CO)NC(=O)[C@@H](NC(=O)[C@H](Cc1ccccc1)NC(=O)[C@@H](NC(=O)CNC(=O)[C@H](CCC(=O)O)NC(=O)CCNC(=O)C(C)(C)c1cc(F)cc(C#N)c1)[C@@H](C)O)[C@@H](C)O)[C@@H](C)CC)[C@@H](C)CC)C(C)C)C(=O)N[C@@H](C)C(=O)NCC(=O)NCC(=O)N1CCC[C@H]1C(=O)N[C@@H](CO)C(=O)N[C@@H](CO)C(=O)NCC(=O)N[C@@H](C)C(=O)N1CCC[C@H]1C(=O)N1CCC[C@H]1C(=O)N1CCC[C@H]1C(=O)N[C@@H](CO)C(N)=O` [CT-388] ({Isobutyryl(2-(3-CN-5-F-Ph))-βAla}-EGTFTSDYSI[Aib]LDKIAQK([AEEA-AEEA-γGlu-C20 diacid])AFVQWLIAGGPSSGAPPPS-NH2)?
Answer: Emax (human GLP-1R [1]): 99%; Emax (human GLP-1R [2]): 4%; Emax (human GLP-1R [3]): 6%; Emax (human GIPR [4]): 92%; Vd/F [5]: 11.4 L; Emax (human GIPR [6]): 28%
